# Where “and” joins values, the source holds several entries; their conditions need not be identical. Equal entries are not always repeated. Where two headings read alike, the source gives them in different places.
# What was measured:
# hMAO-A = target: T1, hMAO-A (Homo sapiens, UniProt P21397); assay: MAO inhibition assay (Amplex Red, fluorimetric), MAO-A
# T1 sequence (P21397 1-527): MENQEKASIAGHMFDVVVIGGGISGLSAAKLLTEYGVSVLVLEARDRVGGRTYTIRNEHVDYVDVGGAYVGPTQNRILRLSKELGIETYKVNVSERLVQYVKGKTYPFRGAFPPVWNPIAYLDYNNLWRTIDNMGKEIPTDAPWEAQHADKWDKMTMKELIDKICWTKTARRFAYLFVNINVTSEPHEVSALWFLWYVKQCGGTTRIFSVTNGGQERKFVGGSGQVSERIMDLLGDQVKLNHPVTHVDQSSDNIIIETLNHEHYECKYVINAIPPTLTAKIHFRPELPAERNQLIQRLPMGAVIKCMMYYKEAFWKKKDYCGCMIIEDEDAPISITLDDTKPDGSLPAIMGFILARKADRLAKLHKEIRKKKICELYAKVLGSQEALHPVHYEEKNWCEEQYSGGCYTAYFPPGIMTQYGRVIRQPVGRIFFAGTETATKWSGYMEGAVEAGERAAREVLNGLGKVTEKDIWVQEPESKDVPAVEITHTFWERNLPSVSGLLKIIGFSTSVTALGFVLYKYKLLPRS
# hMAO-B = target: T2, hMAO-B (Homo sapiens, UniProt P27338); assay: MAO inhibition assay (Amplex Red, fluorimetric), MAO-B
# T2 sequence (P27338 1-520): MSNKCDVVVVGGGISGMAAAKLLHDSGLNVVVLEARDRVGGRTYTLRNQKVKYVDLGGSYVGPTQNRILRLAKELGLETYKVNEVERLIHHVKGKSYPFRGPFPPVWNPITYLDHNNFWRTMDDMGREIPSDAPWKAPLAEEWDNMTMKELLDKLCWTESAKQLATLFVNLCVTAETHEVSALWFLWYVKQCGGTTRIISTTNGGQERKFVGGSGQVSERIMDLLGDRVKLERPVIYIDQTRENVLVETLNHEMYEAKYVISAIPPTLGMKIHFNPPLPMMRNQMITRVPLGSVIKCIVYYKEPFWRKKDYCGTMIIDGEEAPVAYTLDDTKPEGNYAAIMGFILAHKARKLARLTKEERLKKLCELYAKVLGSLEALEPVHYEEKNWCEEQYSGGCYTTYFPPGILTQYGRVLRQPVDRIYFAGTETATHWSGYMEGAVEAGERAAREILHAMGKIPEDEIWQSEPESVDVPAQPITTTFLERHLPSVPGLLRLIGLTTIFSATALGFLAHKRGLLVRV
# [1] = DPPH free radical scavenging antioxidant assay
# Procedure: H2O2 produced during metabolic events in the brain may be crucial for signaling and metabolic functions. The compounds were screened to check their potential to inhibit ROS through the DPPH assay. […] However, further studies are required to confirm this effect.
# The DPPH approach, which gauges the free radical scavenging activity, was used to evaluate the antioxidant properties of the compounds. The test was performed according to the literature method. The stock solution of DPPH (0.5 mM) was prepared, and methanol was used to create each dilution. The different concentrations (10, 25, 50, 75, and 100 μM) of the test compounds (C1–C15) were prepared and compared with the standard ascorbic acid. The percentage antioxidant activity of the compounds was calculated using the following formula: % Antioxidant activity = [(Aabsorbance − Atest)/Aabsorbance] × 100.
# [2] = read-out: Percentage Inhibition at 20 μM MAO-A
# [3] = read-out: Percentage Inhibition at 20 μM MAO-B
# [4] = read-out: IC50 Values MAO-A, class symbol, IC50 not calculated
# [5] = read-out: Percentage Inhibition at 20 μM MAO-A, 20 μM
Structure (SMILES),inhibition at 20 µM (hMAO-A; [2]) [%],inhibition at 20 µM (hMAO-B; [3]) [%],inhibition at 20 µM (hMAO-A; [4]) [%],inhibition at 20 µM (hMAO-A; [5]) [%],% Antioxidant Activity ([1]; 10 µM) [%],% Antioxidant Activity ([1]; 25 µM) [%],% Antioxidant Activity ([1]; 50 µM) [%],% Antioxidant Activity ([1]; 75 µM),% Antioxidant Activity ([1]; 100 µM),inhibition at 20 µM (hMAO-B; read-out: IC50 Values MAO-B) [%],inhibition at 20 µM (hMAO-A; read-out: IC50 Values MAO-A) [%],"% Antioxidant Activity ([1]; 100 µM, listed as ascorbic acid) [%]"
"C#CCN(C)Cc1ccccc1 [Pargyline, pargyline, reference compound]",< 50,99,–,–,–,–,–,–,–,–,–,–
"O=C(/C=C/c1ccc(F)cc1)c1ccc(N2CCOCC2)cc1 [Compound C3, (E)-3-(4-Fluorophenyl)-1-(4-morpholinophenyl)prop-2-en-1-one]",–,7.11,< 50,37.7,14.58,38.25,40.31,50% and 53.10%,56.87%,< 50,–,–
"O=C(/C=C/c1ccc(Cl)c(Cl)c1)c1ccc(N2CCOCC2)cc1 [Compound C2, (E)-3-(3,4-Dichlorophenyl)-1-(4-morpholinophenyl)prop-2-en-1-one]",–,4.74,< 50,19.4,6.63,25.78,37.18,50% and 50.91%,50% and 53.12%,< 50,–,–
"O=C(/C=C/c1ccc(Cl)cc1)c1ccc(N2CCOCC2)cc1 [Compound C7, (E)-3-(4-Chlorophenyl)-1-(4-morpholinophenyl)prop-2-en-1-one]",21.4,7.43,–,–,13.81,15.62,32.06,50% and 52.12%,50% and 53.37%,< 50,< 50,–
"COc1ccc(/C=C/C(=O)c2ccc(N3CCOCC3)cc2)cc1OC [Compound C4, (E)-3-(3,4-Dimethoxyphenyl)-1-(4-morpholinophenyl)prop-2-en-1-one]",–,5.56,< 50,15.8,16.37,32.47,41.07,33.69%,50% and 52.62%,< 50,–,–
"O=C(/C=C/c1ccc(Br)c(F)c1)c1ccc(N2CCOCC2)cc1 [Compound C5, (E)-3-(4-Bromo-3-fluorophenyl)-1-(4-morpholinophenyl)prop-2-en-1-one]",–,6.54,< 50,36.8,19.11,23.41,38.15,49.88%,50% and 50.95%,< 50,–,–
"O=C(/C=C/c1ccc(Br)cc1)c1ccc(N2CCOCC2)cc1 [Compound C1, (E)-3-(4-Bromophenyl)-1-(4-morpholinophenyl)prop-2-en-1-one]",13.6,6.59,–,–,9.24,21.80,35.78,50% and 53.13%,50% and 54.82%,< 50,< 50,–
"O=C1O[C@H]([C@@H](O)CO)C(O)=C1O [Ascorbic acid, ascorbic acid, reference compound]",–,–,–,–,8.03,20.27,40.23,46.33%,58.53%,–,–,50

# Source: paper PMC11945657, “Microwave-Assisted Synthesis of Morpholine-Based Chalcones as Reversible MAO-A Inhibitors in the Management of Mental Depression” (Pharmaceuticals, 2025)
